According to patent publication US20230365568A1, “PLK1 POLO BOX DOMAIN INHIBITORS AND METHOD OF TREATING CANCER” (The United States of America,as represented by the …, priority 2020, published 2023):
Like-named read-outs stand apart in the source and are kept apart here.

Tests used:
full-length human Plk1 = full-length human Plk1 (Homo sapiens (Human), UniProt P53350); assay: ELISA-based Plk1 PBD-binding inhibition assay; settings: for IC50: Plk1 PBD, n = 3 unless noted
Method: An ELISA-based PBD-binding inhibition assay was performed essentially as described previously. […] The wells were washed once with PBS+0.05% Tween20 (PBST) and incubated with 200 μl of PBS plus 1% BSA (blocking buffer) for 1 h to prevent non-specific binding. HEK293A lysates expressing HA-EGFP-Plk1 were prepared in a TBSN [20 mM Tris-HCl (pH 8.0), 150 mM NaCl, 0.5% NP-40, 5 mM EGTA, 2 mM MgCl2, 1.5 mM EDTA, and protease inhibitor cocktail (Roche)]+20% DMSO buffer (˜20 μg total lysates in 100 μl buffer), mixed with the indicated amount of the competitors (p-T78 peptide and its derivative compounds) for 30 min, provided onto the biotinylated peptide-coated ELISA wells, and then incubated with constant rocking for 1 h at 25° C. Following the incubation, ELISA plates were washed 5 times with PBST. To detect bound HA-EGFP-Plk1, the plates were probed for 2 h with 100 μl/well of anti-HA antibody at a concentration of 0.5 μg/ml in the blocking buffer and then washed 5 times. The plates were further probed for 1 h with 100 μl/well of HRP-conjugated secondary antibody (GE Healthcare) at a 1:1,000 dilution in the blocking buffer. The plates were washed 5 times with PBST and incubated with 100 μl/well of 3,3′,5,5′-tetramethylbenzidine solution (Sigma-Aldrich, St. Louis, MO) as substrate until a desired absorbance was reached. The reactions were stopped by the addition of 100 μl/well of stop solution (Cell Signaling Technology, Danvers, MA). The optical density (O.D.) was measured at 450 nm by using a Perkin-Elmer Enspire Multimode Plate reader (PerkinElmer, Inc., Boston, MA). Data obtained from more than three independent experiments were analyzed by GraphPad (San Diego, CA) Prism software version 7.
ELISA-based PBD-binding Inhibition Assay. […] The reaction products were measured at 450 nm by using a Perkin-Elmer Enspire Multimode Plate reader (PerkinElmer, Inc., Boston, MA). Data obtained from more than three independent experiments were analyzed by GraphPad (San Diego, CA) Prism software version 7.

Aqueous solubility = settings: aqueous solubility
[1] = tested on: multiple myeloma-derived L363 cells; assay: MTS cell proliferation assay in L363 cells; type: cell-based; settings: Homo sapiens, L-363, 48 h treatment, read-out: Cell efficacy, GI50 ± sd
Method: MTS Assay. […] 96™ AQueous One Solution Cell Proliferation Assay (MTS) kit (Promega, WI). Briefly, asynchronously growing L363 cells cultured in a 96-well plate were treated with the indicated compounds for 48 h.

[2] = Microsomal metabolic stability, rat liver microsomes (RLM); settings: rat liver microsomes

Sequence of full-length human Plk1 (P53350 whole entry): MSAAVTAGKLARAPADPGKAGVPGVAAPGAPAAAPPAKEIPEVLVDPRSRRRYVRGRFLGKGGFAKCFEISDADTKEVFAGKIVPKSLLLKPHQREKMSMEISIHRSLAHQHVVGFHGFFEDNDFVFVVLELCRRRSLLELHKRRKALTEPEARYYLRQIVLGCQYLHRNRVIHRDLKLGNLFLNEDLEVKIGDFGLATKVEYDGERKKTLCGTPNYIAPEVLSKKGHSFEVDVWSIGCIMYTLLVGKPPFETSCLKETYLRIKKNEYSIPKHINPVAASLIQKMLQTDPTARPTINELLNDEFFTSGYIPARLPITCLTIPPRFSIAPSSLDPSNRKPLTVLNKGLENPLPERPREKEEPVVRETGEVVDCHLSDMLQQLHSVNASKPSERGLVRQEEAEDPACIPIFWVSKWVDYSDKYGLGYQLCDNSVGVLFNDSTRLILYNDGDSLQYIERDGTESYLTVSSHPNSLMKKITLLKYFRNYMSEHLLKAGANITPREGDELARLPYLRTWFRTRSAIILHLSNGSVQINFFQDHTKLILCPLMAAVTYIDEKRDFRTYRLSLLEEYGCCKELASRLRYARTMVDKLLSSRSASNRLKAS

Structure (SMILES)	IC50 (full-length human Plk1)	Solub. (Aqueous solubility)	other results
CCCn1c(=O)c2ccccc2n2c(=S)n(CC(=O)c3ccccc3)nc12 [compound 39]	> 50 µM	–	–
C=CCn1c(=O)c2ccccc2n2c(=S)[nH]nc12 [compound 22]	1.31 ± 0.03 µM	19.4 µg/mL	–
Cc1cc2c(s1)c(=O)n(CC1CC1)c1nnc(Sc3c([N+](=O)[O-])ncn3C)n21 [85 (NCK182), 4-(cyclopropylmethyl)-7-methyl-1-((1-methyl-4-nitro-1H-imidazol-5-yl)thio)thieno[2,3-e][1,2,4]triazolo[4,3-a]pyrimidin-5(4H)-one]	–	–	GI50 [1]: 3110 nM
Cc1cccc(-n2c(=O)c3ccccc3n3c(=S)[nH]nc23)c1C [compound 33]	1.85 ± 0.12 µM	–	–
CCCn1c(=O)c2sc(C)cc2n2c(Sc3c([N+](=O)[O-])ncn3C)nnc12 [75 (NCK173), 7-methyl-1-((1-methyl-4-nitro-1H-imidazol-5-yl)thio)-4-propylthieno[2,3-e][1,2,4]triazolo[4,3-a]pyrimidin-5(4H)-one]	–	–	GI50 [1]: 4140 ± 310 nM
CCCn1c(=O)c2sc(C)cc2n2c(Sc3c(C(F)(F)F)ncn3C)nnc12 [76 (NCK174), 7-methyl-1-((1-methyl-4-(trifluoromethyl)-1H-imidazol-5-yl)thio)-4-propylthieno[2,3-e][1,2,4]triazolo[4,3-a]pyrimidin-5(4H)-one]	–	–	GI50 [1]: > 400000 nM
CCCn1c(=O)c2scc(C)c2n2c(Sc3c([N+](=O)[O-])ncn3C)nnc12 [74 (NCK170), 8-methyl-1-((1-methyl-4-nitro-1H-imidazol-5-yl)thio)-4-propylthieno[2,3-e][1,2,4]triazolo[4,3-a]pyrimidin-5(4H)-one]	–	–	GI50 [1]: 25800 ± 260 nM
COCCCn1c(=O)c2ccccc2n2c(=S)[nH]nc12 [compound 28]	1.75 ± 0.19 µM	31.2 µg/mL	–
CCCCn1c(=O)c2ccccc2n2c(=S)[nH]nc12 [compound 23]	1.03 ± 0.14 µM	8.5 µg/mL	PAMPA: 77.5 ×10⁻⁶ cm/s; t1/2 (min, RLM) [2]: >30 min
CCOCCCn1c(=O)c2ccccc2n2c(=S)[nH]nc12 [compound 29]	1.68 ± 0.11 µM	15.5 µg/mL	lower IC50 compared to 14 (full-length human Plk1; ELISA assay): 29%
N#Cc1ccccc1CC(=O)NCCCn1c(=O)c2cc(F)ccc2n2c(=S)[nH]nc12 [compound 133, 2-(2-cyanophenyl)-N-(3-(7-fluoro-5-oxo-1-thioxo-1,2-dihydro-[1,2,4]triazolo[4,3-a]quinazolin-4(5H)-yl)propyl)acetamide]	–	20.9 µg/mL	PAMPA (PAMPA permeability): 156 ×10⁻⁶ cm/s; t1/2 (min, RLM) [2]: >30 min
O=C(Cc1ccccn1)NCCCn1c(=O)c2cc(F)ccc2n2c(=S)[nH]nc12 [compound 136, N-(3-(7-Fluoro-5-oxo-1-thioxo-1,2-dihydro-[1,2,4]triazolo[4,3-a]quinazolin-4(5H)-yl)propyl)-2-(pyridine-2-yl)acetamide]	–	41.4 µg/mL	PAMPA (PAMPA permeability): 68.0 ×10⁻⁶ cm/s; t1/2 (min, RLM) [2]: >30 min
O=C(Cc1ccc(Br)cc1)NCCCn1c(=O)c2cc(F)ccc2n2c(=S)[nH]nc12 [compound 125, 2-(4-bromophenyl)-N-(3-(7-fluoro-5-oxo-1-thioxo-1,2-dihydro-[1,2,4]triazolo[4,3-a]quinazolin-4(5H)-yl)propyl)acetamide]	–	<1 µg/mL	PAMPA (PAMPA permeability): 767 ×10⁻⁶ cm/s; t1/2 (min, RLM) [2]: 20.6 min
CC(C)CCn1c(=O)c2ccccc2n2c(=S)[nH]nc12 [compound 25]	1.73 ± 0.08 µM	8.0 µg/mL	–
CCCCCn1c(=O)c2ccccc2n2c(=S)[nH]nc12 [compound 24]	1.97 ± 0.11 µM	4.2 µg/mL	–
